# Experiments:
# [1] = system: human keratinocytes (HACAT cell line); assay: In vitro wound healing model, scratched keratinocyte monolayer; format: cell-based; conditions: 50 μM MT8, compared to control medium
# Method: To evaluate whether MT8 is able to induce faster healing of injured human keratinocytes (HACAT cell line) monolayers, an in vitro “wound healing” model was used. HACAT cells were seeded in 6-well culture dishes and grown to 90%-95% confluency. A standardized wound was created by scratching the HACAT cell monolayer with a sterile micropipette tip under an inverted microscope. Then, the cells were washed with PBS and treated with 50 μM MT8 or 4 nM NGF, and images of the wound healing process were recorded at different time points.
# [2] = system: Human Umbilical Vein Endothelial Cells (HUVECs); assay: In vitro AGE-induced endothelial dysfunction, ATP content by CellTiter Glo; format: cell-based; conditions: 20 µM MT8; HUVECs on ECM-AGE-coated plates, 4 days
# Method: BSA-AGE and ECM-AGE were produced by Maillard reaction and Amadori rearrangement and used to evaluate oxidative stress and apoptosis process induced by AGEs in endothelial cell cultures.
# To evaluate whether MT8 is able to counteract AGE-induced endothelial cell dysfunction, Human Umbilical Vein Endothelial Cells (HUVECs) were seeded on ECM-AGE-coated plates and incubated with complete growth medium, in the presence or absence of 20 µM MT8, or 2 nM NGF+2 nM BDNF for 4 days. The cells were then lysed with 100 µL of CellTiter Glo, which allows for ATP release from the cells. The ATP content (directly proportional to cell viability) was measured by luciferase assay.
# [3] = system: psoriasis lesions on the calves of both legs; assay: Treatment of psoriasis in a patient; format: in vivo, human; conditions: one patient
# Source text: A patient diagnosed with psoriasis having lesions on the calves of both legs underwent the following treatment:
# • FAGRON: galenic preparation (0.05% clobetasol propionate, 10% urea in occluvan q.s. to 100%)
# skin lesions / wounds = assay: Topical treatment of skin lesions and wounds in patients (Examples 19-29); format: in vivo, human; conditions: topical application
# Source text: Inoperable antibiotic multi-resistance. […] The jagged edges of the lesion are erythematous and infected. The periwound skin is erythematous and edematous, with erythema extending to the malleolar area. The lesion is lightly exuding, with foul-smelling, serous exudate. Contaminated/infected wound. When changing the dressing, the pain expressed is equal to 8 (VAS pain scale); there is still discomfort and sometimes pain even when the dressing is not changed. Complex wound due to comorbidities. • Treatment with Udonitrectag: Wound cleaning performed with sterile saline solution (0.9% sodium chloride) and Microdacyn, followed by Urgotul and finally 1% Udonitrectag gel-cream, covered with a light dressing; 2 dressing changes per week for a total of 5 dressings with 1% Udonitrectag gel-cream.
# male C57BL/6 mice = assay: In vivo model of androgenetic alopecia (DHT-injected mice); conditions: Udonitrectag 100 μM in PBS, topical twice a day for 2 weeks; vs vehicle
# Method: Udonitrectag was studied in an in vivo model of androgenetic alopecia.
# For this purpose, male C57BL/6 mice were shaved with an animal clipper at 8 weeks of age, when all follicles are in the telogen phase. After depilation, 4 mg of DHT (dissolved in 100 μL of ethanol) were injected subcutaneously into the back of each animal. The mice were then divided into two groups: vehicle-treated and treated with Udonitrectag 100 μM in PBS. Udonitrectag 100 μM solution, or vehicle (PBS only) were applied topically twice a day for 2 weeks and hair growth was recorded at the beginning and at the end of treatment.
substance,measurement,setting,value
"(1S,4R,5R,7S)-3,4-dibenzyl-2-oxo-6,8-dioxa-3-azabicyclo[3.2.1]octane-7-carboxylic acid lysine salt [Udonitrectag]",wound repair process (wound distances as a function of time),[1],induces a faster repair process
same,endothelial cell viability (ATP content),[2],able to maintain endothelial cell viability
same,psoriasis status at skin examination two years after the end of the treatment,"[3]; left and right leg, both legs last treated with Udonitrectag 0.5% gel-cream",completely healed
same,improvement of psoriatic lesions during treatment,"[3]; topical, Udonitrectag as 0.5% gel-cream, regimen per leg over days 1-30",produced visible improvements in the lesions
same,healing of skin lesions incurable with other treatments (FIGS. 6-16),skin lesions / wounds,healing of severe skin lesions
same,hair regrowth,male C57BL/6 mice,induces hair regrowth much faster and more intensively than vehicle treatment

# Source: US20260041694A1, “Udonitrectag For Topical Use In The Treatment Of Dermatological Diseases” (MIMETECH S.R.L., priority 2022, published 2026)
